Test results published in US9606108B2, “Deformable platforms for biological assays” (President and Fellows of Harvard College, priority 2011, dated 2017).

Tested on: human airway smooth muscle (HASM) cells
Assay: High-throughput traction microscopy (HTTM): RMS traction of HASM cell monolayers on gel in 96-well plates, before and after adding drug
Format: cell-based
Details: for normalized traction (RMS traction after adding drug/RMS traction before adding drug): control drugs on zero-hit drug plate, FIG. 14; for change in cellular contraction (RMS traction) with increasing doses: FIG. 13, control drugs
Procedure: Acrylamide gels with 1.8 kPa stiffness and 200-μm thickness were made in 96-well plates, fluorescent markers were coated in a single layer (0.2 μm) onto gel surfaces, and the gel plates were mounted on a fluorescent microscope with motorized stage. On each gel, HASM cells from a single donor were cultured to near confluence. Each well was seeded with 20,000 cells and was serum deprived for 2 days. FIG. 9 illustrates an example layout of a multiwell plate. Imaging of the fluorescent markers included 10× magnification, at 37° C. Three rounds of imaging was performed per plate. For each imaging, two florescent images and one phase image was acquired. Since a common problem for circular shape dishes is rotation of wells, the multi-well plate is optionally a rectangular shape, so that one can easily find the same location in each well. Images of fluorescent markers in each well are taken before cell seeding. In addition, one can store the exact z-position of best sensor focus on each well. It is known that the multi-well plate may not be perfectly flat (e.g., there can be sagging in the middle of the plate). In addition, small changes in sensor depth focus can jeopardize image quality and in turn, traction calculation. Therefore, a prescanning step can aid in screening. After prescanning, wells are seeded with cells and a regular cell culture protocol can be followed. In example 3, a baseline-scanning typically takes fifteen minutes. Drugs can be added and the plates can be incubated for a certain time (e.g., in example 3, incubation occurred over a period of one hour). After incubation, a drug-scan can occur. Thus, three images (prescan, baseline-scan, and drug-scan) are acquired. FIG. 7 is a series of images illustrating a set of three example acquired images. At 700 is a fluorescent image of a bottom bead (0.5 μm). At 710 is a phase contrast image. At 720 is a fluorescent image of a yellow/green bead 0.2 μm. Root mean square values of the absolute traction forces were calculated before and after adding drugs. FIG. 10 illustrates an example process flow diagram 1000 for high-throughput screening using cellular contraction. For example, using the process illustrated in FIG. 10 and a 96 well plate, each scan takes approximately 15 minutes. Since each plate goes through a baseline scan, drug incubation (60 minutes), and a drug scan, it takes approximately 90 minutes per plate. Drug-induced changes in traction provide a simple and physiologically relevant index to identify hits, i.e., those molecules that appreciably reduce cellular traction forces. FIG. 8 is a series of images illustrating six absolute cell traction maps. At 800-850 are cell traction maps for 0.5% Dimethylsulfoxide (DMSO), 1% Fetal Bovine Serum (FBS), 10 μM Y27632, both before and after adding drugs. Y27632 is an inhibitor of the Rho-associated protein kinase, which is known to reduce cellular contraction. […] The treatment of 1% FBS increased RMS traction by 77% from the baseline. The treatment of 10 uM Y-27632 decreased RMS traction by 71% from the baseline. The ratio of RMS tractions of before and after drug treatment (or, normalized contraction) is an index to evaluate the effects of drugs in both stiffening and softening responses.

Row | Structure (SMILES) | normalized traction (RMS traction after adding drug/RMS traction before adding drug) | decrease in cellular contraction (increasing doses of isoproterenol, FIG. 13) | change in cellular contraction (RMS traction) with increasing doses | normalized traction (iso 50 μM, FIG. 12) | measured change in RMS traction (ratio of RMS tractions before and after drug treatment, normalized contraction) (10 μM Y27632, FIG. 8) | decrease of RMS traction from the baseline (10 uM Y-27632) [%]
1 | CC(C)NCC(O)c1ccc(O)c(O)c1 (centres unmarked) [isoproterenol] | decreased traction | more than 50% | did not appear dose dependent | below 0.5 | – | –
2 | C[C@@H](N)[C@H]1CC[C@H](C(=O)Nc2ccncc2)CC1 [Y27632] | decreased traction | – | decreasing cellular contraction in a dose dependent manner | – | 0.29 | 71
